The term logD denotes the decadic logarithm of the distribution of all forms, ionised or not, between an organic phase and buffer at a given pH. Read a high logD as a more lipophilic compound.

Drawing on the SangsterLogP compilation, this text covers logD for 87 compounds.

Each structure is given as a SMILES string.

For the first series the following is noted: pH 2.0.
`O=C(COC(=O)/C=C/c1ccc(F)cc1)Nc1cc(C(F)(F)F)ccc1N1CCOCC1` gave a logD of 5.08.
The same measure, in the same setting: the result for `O=C(/C=C/c1cccs1)Nc1ccc(I)cc1` reads 4.67; that for `COC(=O)C(=O)C1=C(c2ccc(Cl)cc2)NC(=O)N[C@@H]1c1ccc(Cl)cc1`, 3.56.
As for `COc1ccc(NC(=O)[C@H](OC(=O)CNC(=O)c2ccc(C)s2)c2ccccc2)cc1Cl`, the logD was 4.54.
Same read-out and setting: the result for `CC(C)N(Cc1nnc(-c2ccc(Cl)cc2)o1)C(=O)[C@@H]1COc2ccccc2O1` reads 4.09.

Still in this series, the particulars now being: pH 5.0.
Turning to `CCCN(CCC)S(=O)(=O)c1ccc(C(=O)N2CC[C@@H]3c4ccccc4C(=O)N3C2)cc1`, the pH-dependent lipophilicity (logD) was determined as 4.55.
Same read-out and setting: the result for `COC(=O)[C@H]1OC(c2ccccc2)O[C@H]1C(=O)OC` (some centres not stated) reads 2.49.
On the same count and under the same terms, in the case of `C[C@@H]1CCCC[C@H]1NC(=O)COC(=O)C1=COCCO1` it was 2.48.
On to `CC1=NN(C(=O)c2ccccc2Cl)[C@](O)(c2ccc(Cl)cc2)C1`, for which the logD was found to be 3.73.
Turning to `CCC[C@@H]1C(=O)C[C@H](C(C)C)C(C#N)(C#N)C1(C#N)C#N`, the logD turned out to be 3.3.
Same read-out and setting: in the case of `C[C@@H](OC(=O)c1cccc(C(F)(F)F)c1)C(N)=O` it was 2.75.
Same read-out and setting: in the case of `CC(=O)Nc1ccc(C(=O)N(Cc2ccco2)C2(C(=O)Nc3c(C)cccc3C)CCCCC2)cc1` it was 4.62; in that of `O=C1[C@H]2[C@@H](C(=O)N1c1ccccc1)C1(O[C@H]2c2ccccc2)C(=O)c2ccccc2C1=O`, 4; in that of `O=C1/C(=C/c2c(Sc3ccccc3)nc3ccccn3c2=O)SC(=S)N1C[C@H]1CCCO1`, 5.87.
For the compound `COc1cc(/C=C/C(=O)N[C@H]2CCCc3ccccc32)cc(OC)c1OC`, the logD was 4.27.
Regarding `CC(=O)C12c3ccccc3C(c3ccccc31)[C@H]1C(=O)N(c3ccc(C)c([N+](=O)[O-])c3)C(=O)[C@@H]12`, the logD was 4.74.
On the same count and under the same terms, in the case of `CCN(CC)C(=O)[C@@]12CC[C@@](C)(C(=O)O1)C2(C)C` it was 2.66; in that of `O=C1C[C@@H](c2c(F)cccc2Cl)c2cc3c(cc2N1)OCCO3`, 3.96; in that of `O=C1[C@@H](c2cccc(Br)c2)N(CCC2=CCCCC2)C(=O)CN1C1CCCCC1`, 5.6.
The compound `COc1ccccc1[C@@H]1CC(=O)Nc2cc(C)c(C)cc21` had a logD of 4.17.
Still for that read-out and setting: the result for `CCOc1cc(C(=O)Nc2ccc(OC)c(OC)c2)cc(OCC)c1OCC` reads 4.11; that for `Cc1c(Cl)c(C(F)(F)F)nn1[C@@H](C)C(=O)N1CCOCC1`, 3.08; that for `COc1cc2c(cc1OC)[C@@]1(C)N(CC2)C(=O)OC12CCCCC2`, 3.47.
The same measure, in the same setting: in the case of `Cc1cccc(NC(=O)NC(C)C)c1C` it was 2.7; in that of `O=C(NCc1ccccc1)/C(=C/c1ccc(Cl)cc1)NC(=O)c1ccccc1`, 4.41.
Take `Cc1c(CN(C)C(=O)[C@@H](C)n2nc(C(F)F)c(Br)c2C)cnn1C`: the pH-dependent lipophilicity (logD) was 3.12.
In turn, `N#C[C@@H](Cc1cccs1)c1ncc(C(F)(F)F)cc1Cl` showed a logD of 4.09.
`COc1ccc([C@@H]2[C@@H]3CCCC=C3C(C#N)=C(N)C2(C#N)C#N)cc1COCC(F)(F)F` showed a logD of 5.5.
Same read-out and setting: in the case of `COc1ccc([C@H]2C(C#N)=C(N)N(c3ccc(Cl)cc3)C3=C2C(=O)CC(C)(C)C3)cc1OC` it was 4.34; in that of `O=C(Cc1coc2cc3c(cc12)CCC3)O[C@H]1CCCCC1=O`, 4.43; in that of `CC1(C)[C@H](C(=O)N2CCOCC2)CC[C@]1(C)C(=O)N1CCOCC1`, 2.46.
Still for that read-out and setting: in the case of `CCN(CC)S(=O)(=O)N1CCC[C@H](C(=O)NC2CCCCC2)C1` it was 3.58.
The same measure, in the same setting: in the case of `CN(C)C(=O)[C@H]1OC(C)(C)O[C@@H]1C(=O)N(C)C` it was 1.49; in that of `C[C@@H](Oc1ccccc1)C(=O)Nc1ccc(OC(F)(F)F)cc1`, 4.77.
For the compound `CC(C)(C)C(=O)Nc1ccc(NC(=O)C(C)(C)C)cc1`, the logD amounted to 2.79.
Same read-out and setting: the result for `Cc1onc(-c2c(F)cccc2Cl)c1C(=O)OCC(=O)N1[C@H](C)CCC[C@H]1C` reads 4.38; that for `CS(=O)(=O)N(CC(=O)N1CCc2ccccc2C1)c1ccc(OCc2ccccc2)cc1`, 4.91; that for `CCN(CC)S(=O)(=O)c1ccc2nnn(OCC(=O)NC(c3ccccc3)c3ccccc3)c2c1`, 4.49.
Turning to `Cc1noc(C)c1C(=O)O[C@@H](C)C(=O)Nc1ccc2c(c1)OCCO2`, the logD was determined as 2.78.
The same measure, in the same setting: the result for `CC(=O)c1ccc(NC(=O)CNC(=O)CNC(=O)[C@@H]2O[C@@H]3OC(C)(C)O[C@@H]3[C@H]3OC(C)(C)O[C@H]32)cc1` reads 3.39.
On to `CC1(C)OC[C@H](COc2c(F)c(N3CCOCC3)nc(F)c2Cl)O1`, for which the logD amounted to 4.07.
Still for that read-out and setting: in the case of `CC(=O)c1cccc(N2C(=O)[C@@H]3[C@H](C2=O)[C@@H]2C=C[C@H]3C2=C(c2ccc(C)cc2)c2ccc(C)cc2)c1` it was 6.25; in that of `O=C(OCCN1C(=O)c2ccccc2C1=O)[C@@H]1C[C@H](O)CN1S(=O)(=O)c1ccc(Cl)cc1`, 3.65; in that of `C[C@@H](Oc1ccc(F)cc1F)C(=O)c1cn(-c2ccc(OC(F)(F)F)cc2)nn1`, 5.83.
Same read-out and setting: the result for `COC(=O)c1cccc(NC(=O)c2ccc(C)cc2)c1` reads 3.72; that for `COc1ccc([C@@H]2CC(=O)N(c3sc4c(c3C#N)CCCC4)C3=C2C(=O)CCC3)c(OC)c1`, 4.55; that for `CC1(C)C[C@](C)(O)[P@](C)(=O)O1`, 0.71.
Still for that read-out and setting: in the case of `CC1CCN(S(=O)(=O)N2CCC(C(=O)N[C@@H](C)c3ccccc3)CC2)CC1` it was 4.92; in that of `O=C(NC[C@H]1CCCO1)c1cc2nc(C3CC3)cc(C(F)(F)F)n2n1`, 3.33; in that of `CCOC(=O)c1c(NC=C2C(=O)N(C)C(=O)N(C)C2=O)sc2c1CC[C@@H](CC)C2`, 5.76.

The series is the same for the next values; noted with them: pH 6.5.
Turning to `COC[C@H](C)NC(=O)CCl`, the logD was 0.61.
Still for that read-out and setting: the result for `O=C(CCCNC1=NS(=O)(=O)c2ccccc21)OCc1cc([N+](=O)[O-])cc2c1OCOC2` reads 3.52; that for `CCn1c(NC[C@@H](O)c2ccccc2)nc2c1c(=O)n(C)c(=O)n2C`, 3.24; that for `Cc1ccc2[nH]c3nc(N/N=C/C=C/c4ccco4)nnc3c2c1`, 2.18.
Same read-out and setting: in the case of `Cc1ccc(S(=O)(=O)/N=C2\SC(=CN(C)C)C(=O)N2C2CCCCC2)cc1` it was 4.75.
Same read-out and setting: the result for `CC/C(=N\N=C1/S[C@@H](C)C(=O)N1Cc1ccco1)c1ccccc1` reads 5.07; that for `C=CCOc1cccc([C@@H]2c3c(oc4ccccc4c3=O)C(=O)N2c2nnc(C)s2)c1`, 4.52; that for `CC(C)(C)C1(C)O[C@H](C(N)=O)[C@H](C(N)=O)O1` (some centres not stated), 1.6.
For `O=C([C@H]1CCCO1)N1CCN(C(=S)Nc2ccc(Oc3ccccc3)cc2)CC1`, the logD is 4.18.

The same series, now with this note: pH 7.0.
Regarding `Cc1ccc(N[C@H]2O[C@@H](CO)[C@H](O)[C@@H](O)[C@H]2O)cc1Br`, the logD is 2.28.

Still in this series, the particulars now being: pH 7.3.
Regarding `COc1ccc([C@H]2C[C@@H](c3ccc(-c4ccccc4)cc3)Nc3ncnn32)cc1`, the logD came to 5.42.
On the same count and under the same terms, the result for `O=C1C(=O)N(OCc2ccc(Br)cc2)[C@H]2CCCC[C@@H]2N1OCc1ccc(Br)cc1` reads 5.49; that for `CC[C@@H](SC1=Nc2ccccc2C2=N[C@@H](CC(C)C)C(=O)N12)C(=O)Nc1ccc2c(c1)OCO2`, 4.85.
On to `CC1=NC2=C(C(=O)CCC2)[C@H](c2ccc(Cl)cc2)C1C(=O)OCCc1ccccc1` (some centres not stated), for which the log distribution coefficient (logD) amounted to 5.48.

Still in this series, the particulars now being: pH 8.0.
Compound `CCc1cccc(C)c1N(C(=O)Cn1c([C@@H](C)O)nc2ccccc21)[C@@H](C)COC` registered a logD of 4.48.
`COC(=O)c1c(N[C@@H](NC(C)=O)C(Cl)(Cl)Cl)sc2c1CCCC2` had a logD of 5.04.
Same read-out and setting: in the case of `COc1ccc([C@@H](C)n2c(C)c3c(C)nnc(C)c3c2C)cc1` it was 3.43; in that of `COC(=O)CSc1nc(NCC(C)C)nc(N2CCOCC2)n1`, 3.75.
`CC(=O)N(c1ccccc1)c1nc(/C=C/C(=O)Nc2ccc3c(c2)OCO3)cs1` showed a logD of 4.37.
Same read-out and setting: the result for `COc1cc(/C=C/C(=O)Nc2ccc(N3CCCCC3)cc2)ccc1OC(F)F` reads 5.36.

The same series, now with this note: pH 9.0.
Compound `CC(=O)Nc1ccc([C@@H]2C(C#N)=C(N)Oc3[nH]nc(-c4cc(C)sc4C)c32)cc1` returned a logD of 4.26.

The same series, now with this note: pH 10.0.
`CC(C)OC(=O)C1=C(CSc2nc3c(cc2C#N)CCCCC3)OC(N)=C(C#N)[C@@H]1c1ccncc1`: the logD was 5.43.
The same measure, in the same setting: the result for `O=[N+]([O-])c1ccccc1/C=N/c1ccc(/N=C/c2ccccc2[N+](=O)[O-])cc1` reads 2.95; that for `CCSCCOC(=O)C1=C(C)NC2=C(C(=O)C[C@@H](c3cccs3)C2)[C@H]1c1ccc2c(c1)OCO2`, 5.
Still for that read-out and setting: the result for `CC(=O)/N=c1/sc2nc3ccccc3nc2n1N(C(C)=O)C(C)=O` reads 1.1.

The same series, now with this note: pH 10.5.
As to `CN1C(=O)N(C)C2(c3ccccc3)Nn3c(s/c(=C\c4ccc(Br)cc4)c3=O)=NC12c1ccccc1` (configuration not stated), the logD came to 5.72.
The same measure, in the same setting: the result for `CCc1cc2c3c(c1)[C@]1(C(=O)N3C(C)(C)C=C2C)C(C#N)=C(N)OC2=C1C(=O)CC(C)(C)C2` reads 5.39.
The same measure, in the same setting: the result for `O=C(c1ccccc1)N1CCCC[C@@H](Sc2nnc3ccccn23)C1=O` reads 3.14.
Still for that read-out and setting: the result for `COc1ccc(N2C(=O)C[C@@H](Sc3nc(C)cc(C)n3)C2=O)cc1OC` reads 2.95; that for `N#CC1=C(N)Oc2c(c(=O)oc3ccccc23)[C@H]1c1cccs1`, 2.34.
Take `Cc1ccc(NCc2ccc3n2C/C(=C2/CCn4c(CNc5ccc(C)cc5)ccc42)C3=O)cc1`: the logD was found to be 6.51.
On the same count and under the same terms, the result for `CN(c1ccccc1)S(=O)(=O)c1ccc(C(=O)N2CCN(c3ccccc3Cl)CC2)cc1` reads 5.31; that for `COc1cccc(C2=NN=C3OC(N)=C(C#N)[C@H](c4cc(OC)c(OC)cc4Br)[C@@H]32)c1`, 4.52; that for `N#C/C(=C/c1ccc2c(c1)OCO2)C(=O)N=C1c2ccccc2CN1c1cccc([N+](=O)[O-])c1`, 5.4.
Compound `N#CC1=C(N)OC2=NN=C(c3cccs3)[C@@H]2[C@@H]1C1CCCCC1` displayed a log distribution coefficient (logD) of 4.64.
Still for that read-out and setting: in the case of `C=CCn1/c(=N/C(=O)c2cc(OC)c(OC)c(OC)c2)sc2cccc(OC)c21` it was 5.14; in that of `Cc1cccc(-n2c(S[C@@H](C)C(N)=O)nnc2-c2cccc(S(=O)(=O)N(C)C)c2)c1`, 3.81.
